This note sets out measurements from US20260364184A1, “COMPOUND BASED ON OXOISOINDOLINYL-SUBSTITUTED TETRAHYDROPYRIMIDINE-DIONE AND USE THEREOF” (GLUETACS THERAPEUTICS (SHANGHAI) CO., LTD., priority 2023, published 2026).

Experiment [1] has as its system Human non-small cell lung cancer cell line NCI-H1975. Description: Inhibition of H1975 cell proliferation (CellTiter luminescent viability). The experiment is classed as cell-based. The settings on record: Table ID1, EGFR inhibitor-based; H1975, 96 hours; read-out: Inhibitory activity (IC50, nM) on tumor cell proliferation, H1975. The procedure:
The tumor cells used herein were cultured in a cell culture medium listed in table 3 at 37 °C in an incubator with 5% CO2. Prior to experimentation, all cell lines used were correctly identified by STR profiling, and tested negative for mycoplasma contamination using a mycoplasma detection kit through routine screenings.
The IC50 values of the compounds of the present disclosure (including the compounds in Table 1, Table 2, and Examples 1-468) were determined using the CellTiter-Meiluncell Luminescent Cell Viability Assay Kit from Dalian Meilun Biotech Co., Ltd. The detailed procedure is as follows: Tumor cells were seeded in 96-well cell culture plates at the densities specified in Table 4. On the following day, the test compounds of the present disclosure were subjected to serial dilution. The dilution can be performed according to one of the following two methods: • (1) The first dilution method: The test compounds of the present disclosure (including the compounds in Table 1, Table 2, and Examples 1-468) were subjected to 5-fold serial dilutions starting from a highest concentration of 2000 μM, resulting in a total of 9 concentrations from high to low (2000, 400, 80, 16, 3.2, 0.64, 0.128, 0.0256, 0.00512 μM). Subsequently, 0.5 μL of the test compound dilution was transferred into the 96-well plate containing the cells, with each well containing 100 μL of cell culture medium. […] Into the 96-well plate, the diluted test compounds and corresponding detection reagents were added, resulting in final test compound concentrations of 500 nM and 10 nM, respectively. The experimental procedure is described below using the diluted 2 μM test compound as an example.
0.5 μL of the aforementioned diluted compound of the present disclosure (including the compounds in Table 1, Table 2, and Examples 1-468) was added to the seeded cells in 100 μL of medium, yielding a final test compound concentration of 10 nM. After the cells were treated with the compounds of the present disclosure for a specified period, the cell viability assay reagent was added to the culture medium according to the kit's instructions to determine cell viability. […] All controls were treated using the same procedure as the compounds of the present disclosure. The growth inhibition curves for the compounds of the present disclosure were plotted using Prism GraphPad software, and the IC50 values were calculated therefrom.

The target in experiment [2] is T1, EGFR (Homo sapiens, UniProt P00533).
T1 construct: L858R/T790M in cis, heterozygous with wild type), Western blot
T1 sequence (P00533 25-1210): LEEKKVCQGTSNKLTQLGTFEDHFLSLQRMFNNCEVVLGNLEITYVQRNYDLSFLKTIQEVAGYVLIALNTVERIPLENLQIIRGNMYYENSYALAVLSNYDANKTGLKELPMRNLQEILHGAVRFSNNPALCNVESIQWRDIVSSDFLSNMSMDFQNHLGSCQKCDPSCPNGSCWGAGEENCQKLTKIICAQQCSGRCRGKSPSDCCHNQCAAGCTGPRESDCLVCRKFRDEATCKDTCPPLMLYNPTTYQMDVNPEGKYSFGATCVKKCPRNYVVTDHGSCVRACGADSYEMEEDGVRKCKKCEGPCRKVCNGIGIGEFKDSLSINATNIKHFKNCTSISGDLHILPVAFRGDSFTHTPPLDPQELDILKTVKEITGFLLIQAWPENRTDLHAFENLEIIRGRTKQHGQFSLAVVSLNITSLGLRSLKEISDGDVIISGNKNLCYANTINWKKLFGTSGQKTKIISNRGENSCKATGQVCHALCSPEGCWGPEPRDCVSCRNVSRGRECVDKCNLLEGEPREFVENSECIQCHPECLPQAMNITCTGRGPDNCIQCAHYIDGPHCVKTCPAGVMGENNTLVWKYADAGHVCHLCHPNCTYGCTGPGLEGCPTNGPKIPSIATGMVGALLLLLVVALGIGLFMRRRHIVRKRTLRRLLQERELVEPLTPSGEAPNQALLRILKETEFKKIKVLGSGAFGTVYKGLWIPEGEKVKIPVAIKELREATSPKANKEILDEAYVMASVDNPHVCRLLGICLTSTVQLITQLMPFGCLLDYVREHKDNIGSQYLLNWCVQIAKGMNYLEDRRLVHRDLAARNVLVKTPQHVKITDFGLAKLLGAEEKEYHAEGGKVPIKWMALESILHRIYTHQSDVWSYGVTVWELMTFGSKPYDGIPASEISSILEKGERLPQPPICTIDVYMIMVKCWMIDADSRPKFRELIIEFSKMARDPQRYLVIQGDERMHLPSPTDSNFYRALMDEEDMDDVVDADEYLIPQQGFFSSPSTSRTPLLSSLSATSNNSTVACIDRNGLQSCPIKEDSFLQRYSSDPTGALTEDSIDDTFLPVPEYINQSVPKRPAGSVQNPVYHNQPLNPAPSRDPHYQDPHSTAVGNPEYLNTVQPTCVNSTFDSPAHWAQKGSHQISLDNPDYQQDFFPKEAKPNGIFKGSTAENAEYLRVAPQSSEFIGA
T1 sequence (Q96SW2 whole entry partner): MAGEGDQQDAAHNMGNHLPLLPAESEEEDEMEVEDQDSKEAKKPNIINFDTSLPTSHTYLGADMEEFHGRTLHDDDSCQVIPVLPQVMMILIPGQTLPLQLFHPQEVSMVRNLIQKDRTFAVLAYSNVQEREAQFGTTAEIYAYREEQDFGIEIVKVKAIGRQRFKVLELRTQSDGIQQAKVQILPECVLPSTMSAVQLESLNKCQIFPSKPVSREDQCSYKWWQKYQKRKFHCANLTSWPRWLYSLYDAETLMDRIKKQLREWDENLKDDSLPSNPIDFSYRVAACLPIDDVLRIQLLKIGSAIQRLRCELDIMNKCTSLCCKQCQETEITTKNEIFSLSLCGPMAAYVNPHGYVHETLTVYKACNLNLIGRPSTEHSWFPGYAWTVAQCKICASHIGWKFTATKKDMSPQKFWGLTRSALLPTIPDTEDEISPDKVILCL
Description: Western blot degradation of EGFR. To be noted: H1975 Cell; 24 hours. The experiment is classed as cell-based. The procedure:
Conventional Western blot assay was performed to evaluate the effects of the compounds of the present disclosure on the expression of target proteins in cells.
(1) Cell Seeding and Protein Harvesting: The selected cells were processed according to the cell seeding procedure and protein harvesting procedure in Table II-2.
(2) To the collected supernatant, 5×SDS sample loading buffer was added, followed by denaturation at 95 °C for 5 minutes. The denatured samples were then separated by SDS-PAGE electrophoresis on a polyacrylamide gel. Proteins were transferred to a nitrocellulose membrane (0.45 μm NC membrane), blocked with blocking buffer at room temperature for 1 hour, and subjected to antibody incubation and development procedures according to the antibody manufacturer's instructions (Cell Signaling Technology).
Half-Maximal Degradation Concentration value (the drug concentration required for degrading proteins by 50%, abbreviated as DC50) reads method: comparing the grayscale values of Western blot bands from drug-treated samples with those from blank DMSO-treated controls, and identifying the drug concentration range at which the grayscale value is half that of the DMSO-treated control bands.
DC50 values can be calculated using ImageJ software to measure grayscale values of Western blot bands from drug-treated samples. The concentration-response curve is fitted to estimate the drug concentration corresponding to half the grayscale value.
Target protein remaining (%) refers to the percentage of target protein remaining in cells after treatment with protein degrader compounds.
Calculation method for target protein remaining (%): Use ImageJ software to measure grayscale values of Western blot bands from drug (protein degrader)-treated samples. The grayscale value of drug-treated bands is divided by that of internal control protein bands, and the resulting quotient is normalized to obtain the relative percentage of remaining target protein after protein degrader treatment.
Target protein degradation rate (%)=1−target protein remaining (%).
(In general: Immunoblotting shows a protein as a band on a membrane.)

The target of experiment [3] is T2, human Cereblon WT GST-tagged protein (CRBN) (Homo sapiens, UniProt Q96SW2).
T2 construct: purchased CISBIO 64BDCRBNPEH
T2 sequence (Q96SW2 whole entry): as the sequence (Q96SW2 whole entry partner) above
Description: CRBN binding by HTRF (Cereblon binding kit). The essentials: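 GST-tagged human Cereblon WT was incubated 3 h at room temperature with compound, thalidomide-Re tracer and Eu anti-GST antibody. Final compound concentrations were 10 to 0.00064 µM (7 points) or 2 and 0.5 µM. Inhibition rate was calculated from HTRF 665/620 nm ratios versus solvent and blank controls.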

Molecules are shown by their SMILES.

Take `CN(C)C/C=C/C(=O)Nc1cc2c(Nc3ccc(F)c(Cl)c3)ncnc2cc1O[C@H]1CCOC1` [afatinib, Afatinib, reference compound]: the IC50 in experiment [1] lay in the range of 130 to 200 nM.
On to `O=C1CCN(N2C(=O)c3cccc(N4CCC(CN5C[C@H]6C[C@@H]5CN6c5ccc(-c6cc(F)c7c(c6)C(=O)N(C(C(=O)Nc6nccs6)c6ncn8c6CCC8)C7)cc5)CC4)c3C2=O)C(=O)N1` (stereo partly drawn) [GT-06175, 2-(6,7-dihydro-5H-pyrrolo[1,2-c]imidazol-1-yl)-2-(6-(4-((1R,4R)-5-((1-(2-(2,4-dioxotetrahydropyrimidin-1(2H)-yl)-1,3-dioxoisoindolin-4-yl)piperidin-4-yl)methyl)-2,5-diazabicyclo[2.2.1]heptan-2-yl)phenyl)-4-fluoro-1-oxoisoindolin-2-yl)-N-(thiazol-2-yl)acetamide], for which, in experiment [2], the “Degradation of substrate protein EGFR (substrate protein remaining %)” value (“Degradation … (substrate protein remaining %)” for short) is “A (0%≤substrate protein remaining %≤80%)”. The IC50 in experiment [1] lay in the range of 10 to 50 nM.
For `O=C1CCN(N2Cc3cc(CN4CCN(c5ccc(-c6cc(F)c7c(c6)C(=O)N(C(C(=O)Nc6nccs6)c6ncn8c6CCC8)C7)cc5)CC4)ccc3C2=O)C(=O)N1` (stereo not shown) [GT-06159, 2-(6,7-dihydro-5H-pyrrolo[1,2-c]imidazol-1-yl)-2-(6-(4-(4-((2-(2,4-dioxotetrahydropyrimidin-1(2H)-yl)-1-oxoisoindolin-5-yl)methyl)piperazin-1-yl)phenyl)-4-fluoro-1-oxoisoindolin-2-yl)-N-(thiazol-2-yl)acetamide], in that order: “A (0%≤substrate protein remaining %≤80%)” and < 10 nM.
For `O=C1CCN(N2C(=O)c3ccc(CN4CCN(C5CCN(c6ccc(-c7cc(F)c8c(c7)C(=O)N(C(C(=O)Nc7nccs7)c7ncn9c7CCC9)C8)cc6)CC5(F)F)CC4)cc3C2=O)C(=O)N1` (stereo not shown) [GT-06316, 2-(6,7-dihydro-5H-pyrrolo[1,2-c]imidazol-1-yl)-2-(6-(4-(4-(4-((2-(2,4-dioxotetrahydropyrimidin-1(2H)-yl)-1,3-dioxoisoindolin-5-yl)methyl)piperazin-1-yl)-3,3-difluoropiperidin-1-yl)phenyl)-4-fluoro-1-oxoisoindolin-2-yl)-N-(thiazol-2-yl)acetamide], the IC50 in experiment [1] is 50 to 100 nM.
With `O=C1CCN(N2C(=O)c3ccc(N4CCC(CN5C[C@H]6C[C@@H]5CN6c5ccc(-c6cc(F)c7c(c6)C(=O)N(C(C(=O)Nc6nccs6)c6ncn8c6CCC8)C7)cc5)CC4)cc3C2=O)C(=O)N1` (stereo partly drawn) [GT-06174, 2-(6,7-dihydro-5H-pyrrolo[1,2-c]imidazol-1-yl)-2-(6-(4-((1R,4R)-5-((1-(2-(2,4-dioxotetrahydropyrimidin-1(2H)-yl)-1,3-dioxoisoindolin-5-yl)piperidin-4-yl)methyl)-2,5-diazabicyclo[2.2.1]heptan-2-yl)phenyl)-4-fluoro-1-oxoisoindolin-2-yl)-N-(thiazol-2-yl)acetamide], the “Degradation … (substrate protein remaining %)” value in experiment [2] is recorded as “A (0%≤substrate protein remaining %≤80%)”. In addition, the IC50 in experiment [1] was 10 to 50 nM.
As to `O=C1CCN(N2Cc3cc(CN4CCC(N5CCN(c6ccc(-c7cc(F)c8c(c7)C(=O)N(C(C(=O)Nc7nccs7)c7ncn9c7CCC9)C8)cc6)CC5)CC4)ccc3C2=O)C(=O)N1` (stereo not shown) [GT-06324, 2-(6,7-dihydro-5H-pyrrolo[1,2-c]imidazol-1-yl)-2-(6-(4-(4-(1-((2-(2,4-dioxotetrahydropyrimidin-1(2H)-yl)-1-oxoisoindolin-5-yl)methyl)piperidin-4-yl)piperazin-1-yl)phenyl)-4-fluoro-1-oxoisoindolin-2-yl)-N-(thiazol-2-yl)acetamide], in experiment [1], the IC50 is 10 to 50 nM. Further, in experiment [3] (0.5 μM), the “Inhibition Rate at 0.5 μM (%)” value is reported as “a1 (10% < a1 ≤ 20%)”. The “Inhibition Rate at 2 μM (%)” value in experiment [3] (2 μM) was “a5 (53% < a5 ≤ 60%)”.
Consider `O=C1CCN(N2Cc3cc(CN4CCN(C5CCN(c6ccc(-c7cc(F)c8c(c7)C(=O)N(C(C(=O)Nc7nccs7)c7ncn9c7CCC9)C8)cc6)CC5(F)F)CC4)ccc3C2=O)C(=O)N1` (stereo not shown) [GT-06315, 2-(6,7-dihydro-5H-pyrrolo[1,2-c]imidazol-1-yl)-2-(6-(4-(4-(4-((2-(2,4-dioxotetrahydropyrimidin-1(2H)-yl)-1-oxoisoindolin-5-yl)methyl)piperazin-1-yl)-3,3-difluoropiperidin-1-yl)phenyl)-4-fluoro-1-oxoisoindolin-2-yl)-N-(thiazol-2-yl)acetamide], for which, in experiment [2], the “Degradation … (substrate protein remaining %)” value is given as “A (0%≤substrate protein remaining %≤80%)”. Besides, in experiment [1], the IC50 is < 10 nM.
For `O=C1CCN(N2C(=O)c3ccc(N4CCC(CN5CCN(c6ccc(-c7cc(F)c8c(c7)C(=O)N(C(C(=O)Nc7nccs7)c7ncn9c7CCC9)C8)cc6)CC5)CC4)cc3C2=O)C(=O)N1` (stereo not shown) [GT-06161, 2-(6,7-dihydro-5H-pyrrolo[1,2-c]imidazol-1-yl)-2-(6-(4-(4-((1-(2-(2,4-dioxotetrahydropyrimidin-1(2H)-yl)-1,3-dioxoisoindolin-5-yl)piperidin-4-yl)methyl)piperazin-1-yl)phenyl)-4-fluoro-1-oxoisoindolin-2-yl)-N-(thiazol-2-yl)acetamide], in that order: “A (0%≤substrate protein remaining %≤80%)” and 10 to 50 nM.
As to `CN(Cc1ccc2c(c1)C(=O)N(N1CCC(=O)NC1=O)C2=O)C1CCN(c2ccc(-c3cc(F)c4c(c3)C(=O)N(C(C(=O)Nc3nccs3)c3ncn5c3CCC5)C4)cc2)CC1` (stereo not shown) [GT-05196, 2-(6,7-dihydro-5H-pyrrolo[1,2-c]imidazol-1-yl)-2-(6-(4-(4-(((2-(2,4-dioxotetrahydropyrimidin-1(2H)-yl)-1,3-dioxoisoindolin-5-yl)methyl)(methyl)amino)piperidin-1-yl)phenyl)-4-fluoro-1-oxoisoindolin-2-yl)-N-(thiazol-2-yl)acetamide], the IC50 in experiment [1] was in the range of 10 to 50 nM.
The same measure, in the same setting: the same measure for `C#Cc1cccc(Nc2ncnc3cc(OCCOC)c(OCCOC)cc23)c1` [erlotinib, Erlotinib, reference compound]: 1000 to 5000 nM; for `O=C1CCN(N2C(=O)c3ccc(CN4CCN(C5CCN(c6ccc(-c7cc(F)c8c(c7)C(=O)N(C(C(=O)Nc7nccs7)c7ncn9c7CCC9)C8)cc6)CC5)CC4)cc3C2=O)C(=O)N1` (stereo not shown) [GT-06242, 2-(6,7-dihydro-5H-pyrrolo[1,2-c]imidazol-1-yl)-2-(6-(4-(4-(4-((2-(2,4-dioxotetrahydropyrimidin-1(2H)-yl)-1,3-dioxoisoindolin-5-yl)methyl)piperazin-1-yl)piperidin-1-yl)phenyl)-4-fluoro-1-oxoisoindolin-2-yl)-N-(thiazol-2-yl)acetamide]: 50 to 100 nM; for `O=C1CCN(N2C(=O)c3cccc(N4CCC(CN5CCN(c6ccc(-c7cc(F)c8c(c7)C(=O)N(C(C(=O)Nc7nccs7)c7ncn9c7CCC9)C8)cc6)CC5)CC4)c3C2=O)C(=O)N1` (stereo not shown) [GT-06162, 2-(6,7-dihydro-5H-pyrrolo[1,2-c]imidazol-1-yl)-2-(6-(4-(4-((1-(2-(2,4-dioxotetrahydropyrimidin-1(2H)-yl)-1,3-dioxoisoindolin-4-yl)piperidin-4-yl)methyl)piperazin-1-yl)phenyl)-4-fluoro-1-oxoisoindolin-2-yl)-N-(thiazol-2-yl)acetamide]: 10 to 50 nM.
